From ChEMBL document CHEMBL2385072, “Development of oleanane-type triterpenes as a new class of HCV entry inhibitors” (J Med Chem, 2013)

Columns and labels:
Conditions in all cases: HEK-293T
Hepatitis C virus [1] = test: Antiviral activity against pseudo HCV infected in human 293T cells assessed as inhibition of HCV pseudo particles entry at 10 uM after 72 hrs by luciferase reporter gene assay; type: functional, Hepacivirus hominis
[2] = system: Vesicular stomatitis virus; test: Antiviral activity against pseudo VSV infected in human 293T cells assessed as inhibition of vesicular stromatis G protein pseudo particles entry at 5 uM after 72 hrs by luciferase reporter gene assay; type: functional
[3] = system: Vesicular stomatitis virus; test: Antiviral activity against pseudo VSV infected in human 293T cells assessed as inhibition of vesicular stromatis G protein pseudo particles entry at 1 uM after 72 hrs by luciferase reporter gene assay; type: functional
Hepatitis C virus [4] = test: Antiviral activity against pseudo HCV infected in human 293T cells assessed as inhibition of HCV pseudo particles entry at 1 uM after 72 hrs by luciferase reporter gene assay; type: functional, Hepacivirus hominis
Hepatitis C virus [5] = test: Antiviral activity against pseudo HCV infected in human 293T cells assessed as inhibition of HCV pseudo particles entry at 5 uM after 72 hrs by luciferase reporter gene assay; type: functional, Hepacivirus hominis

Row | SMILES | inhibition at 10 µM (Hepatitis C virus [1]) [%] | inhibition at 5 µM [2] [%] | inhibition at 1 µM [3] [%] | inhibition at 1 µM (Hepatitis C virus [4]) [%] | inhibition at 5 µM (Hepatitis C virus [5]) [%]
1 | CC1(C)CC[C@]2(C(=O)O)CC[C@]3(C)[C@H](C(=O)C[C@@H]4[C@@]5(C)CC[C@H](O)C(C)(C)[C@@H]5CC[C@]43C)[C@@H]2C1 | 50 | – | – | – | –
2 | CC1(C)CC[C@]2(C(=O)O)[C@H](O)C[C@]3(C)C(=CC[C@@H]4[C@@]5(C)CC[C@H](O)[C@@](C)(C=O)[C@@H]5CC[C@]43C)[C@@H]2C1 [QUILLAIC ACID] | 0 | – | – | – | –
3 | CC1(C)CC[C@]2(C(=O)O)CC[C@]3(C)C(=CC[C@@H]4[C@@]5(C)CC[C@H](O)[C@@](C)(C=O)[C@@H]5CC[C@]43C)[C@@H]2C1 | 0 | – | – | – | –
4 | CC1(C)CC[C@]2(C(=O)O)CC[C@]3(C)C(=CC[C@@H]4[C@@]5(C)CC[C@H](O)[C@@](C)(C(=O)O)[C@@H]5CC[C@]43C)[C@@H]2C1 | 0 | – | – | – | –
5 | CC(=O)O[C@H]1CC[C@]2(C)[C@H]3CC=C4[C@@H]5CC(C)(C)CC[C@]5(C(=O)O)CC[C@@]4(C)[C@]3(C)CC[C@H]2C1(C)C [ACETYL OLEANOLIC ACID] | 10 | – | – | – | –
6 | CC1(C)CC[C@]2(C(=O)O)CC[C@]3(C)C(=CC[C@@H]4[C@@]5(C)C[C@@H](O)[C@H](O)[C@@](C)(CO)[C@@H]5CC[C@]43C)[C@@H]2C1 [ARJUNOLIC ACID] | 0 | – | – | – | –
7 | CC1(C)CC[C@]2(C(=O)O)CC[C@]3(C)C(=CC[C@@H]4[C@@]5(C)CC[C@H](OC6O[C@H](CO)[C@@H](O)[C@H](O)[C@H]6O)[C@@](C)(CO)[C@@H]5CC[C@]43C)[C@@H]2C1 (stereo partly drawn) | 0 | – | – | – | –
8 | CC1(C)CC[C@]2(C(=O)O)CC[C@]3(C)[C@H](C(O)C[C@@H]4[C@@]5(C)CC[C@H](O)C(C)(C)[C@@H]5CC[C@]43C)[C@@H]2C1 (stereo partly drawn) | 60 | – | – | – | –
9 | CC1(C)CC[C@]2(C(=O)O)CC[C@]3(C)C(=CC[C@@H]4[C@@]5(C)C[C@@H](O)[C@H](O)C(C)(C)[C@@H]5CC[C@]43C)[C@@H]2C1 [MASLINIC ACID] | 0 | – | – | – | –
10 | CC1(C)C[C@H]2C3=CC[C@@H]4[C@@]5(C)CC[C@H](O)C(C)(C)[C@@H]5CC[C@@]4(C)[C@]3(C)C[C@@H](O)[C@@]2(C(=O)O)C[C@@H]1O | 15 | – | – | – | –
11 | CC1(C)CC[C@]2(C(=O)O)CC[C@]3(C)C(=CC[C@@H]4[C@@]5(C)CC[C@H](OC6O[C@H](CO)[C@@H](O)[C@H](O)[C@H]6O)C(C)(C)[C@@H]5CC[C@]43C)[C@@H]2C1 (stereo partly drawn) | 0 | – | – | – | –
12 | C=C(C)[C@@H]1CC[C@]2(C(=O)O)CC[C@]3(C)[C@H](CC[C@@H]4[C@@]5(C)CC[C@H](O)C(C)(C)[C@@H]5CC[C@]43C)[C@@H]12 [BETULINIC ACID] | 75 | – | – | – | –
13 | COC(=O)[C@]12CCC(C)(C)C[C@H]1C1=CC[C@@H]3[C@@]4(C)CC[C@H](O)C(C)(C)[C@@H]4CC[C@@]3(C)[C@]1(C)CC2 [METHYL OLEANOLATE] | 60 | – | – | – | –
14 | CC1(C)[C@@H](O)CC[C@]2(C)[C@H]3CC=C4[C@@H]5C[C@](C)(CO)CC[C@]5(C(=O)O)[C@H](O)C[C@@]4(C)[C@]3(C)CC[C@@H]12 | 90 | – | – | – | –
15 | CC1(C)CC[C@]2(C(=O)O)[C@H](O)C[C@]3(C)C(=CC[C@@H]4[C@@]5(C)CC[C@H](O)[C@@](C)(C(=O)O)[C@@H]5CC[C@]43C)[C@@H]2C1 | 0 | – | – | – | –
16 | C[C@H]1[C@H](C)CC[C@]2(C(=O)O)CC[C@]3(C)C(=CC[C@@H]4[C@@]5(C)CC[C@H](O)C(C)(C)[C@@H]5CC[C@]43C)[C@H]12 [URSOLIC ACID] | 30 | – | – | – | –
17 | CC1(C)CC[C@]2(C(=O)O)CC[C@]3(C)C(=C[C@@H](O)[C@@H]4[C@@]5(C)CC[C@H](O)C(C)(C)[C@@H]5CC[C@]43C)[C@@H]2C1 | 50 | – | – | – | –
18 | CC1(C)CC[C@]2(C(=O)O)[C@H](O)C[C@]3(C)C(=CC[C@@H]4[C@@]5(C)CC[C@H](O)C(C)(C)[C@@H]5[C@H](O)C[C@]43C)[C@@H]2C1 | 5 | – | – | – | –
19 | CC(=O)OC[C@H]1O[C@H](O[C@H]2[C@H](OC(C)=O)[C@@H](OC(C)=O)[C@H](OC(=O)[C@]34CCC(C)(C)C[C@H]3C3=CC[C@@H]5[C@@]6(C)CC[C@H](O)C(C)(C)[C@@H]6CC[C@@]5(C)[C@]3(C)C[C@H]4O)O[C@@H]2COC(C)=O)[C@H](OC(C)=O)[C@@H](OC(C)=O)[C@@H]1OC(C)=O | – | 23.4 | 20.9 | 36.5 | 50
20 | COC(=O)[C@]12CCC(C)(C)C[C@H]1C1=CC[C@@H]3[C@@]4(C)CCC(=O)C(C)(C)[C@@H]4CC[C@@]3(C)[C@]1(C)CC2=O | – | -2.8 | -10 | 48.2 | 70.1
21 | CC1(C)CC[C@]2(C(=O)NCc3cn([C@@H]4O[C@H](CO)[C@@H](O)[C@H](O)[C@@H]4O)nn3)[C@H](O)C[C@]3(C)C(=CC[C@@H]4[C@@]5(C)CC[C@H](O)C(C)(C)[C@@H]5CC[C@]43C)[C@@H]2C1 | – | 19.5 | 17.9 | 17.5 | 25
22 | COC(=O)[C@]12CCC(C)(C)C[C@H]1C1=CC[C@@H]3[C@@]4(C)CC=CC(C)(C)[C@@H]4CC[C@@]3(C)[C@]1(C)C[C@H]2O | – | 9.7 | 7.6 | -3.3 | -8.9
23 | CC(=O)OC[C@H]1O[C@@H](n2cc(CNC(=O)[C@]34CCC(C)(C)C[C@H]3C3=CC[C@@H]5[C@@]6(C)CC[C@H](O)C(C)(C)[C@@H]6CC[C@@]5(C)[C@]3(C)C[C@H]4O)nn2)[C@@H](OC(C)=O)[C@@H](OC(C)=O)[C@@H]1OC(C)=O | – | 14.7 | -5.3 | 21.8 | 81.5
24 | C[C@H]1O[C@@H](n2cc(CNC(=O)[C@]34CCC(C)(C)C[C@H]3C3=CC[C@@H]5[C@@]6(C)CC[C@H](O)C(C)(C)[C@@H]6CC[C@@]5(C)[C@]3(C)C[C@H]4O)nn2)[C@@H](O)[C@@H](O)[C@@H]1O | – | 13.9 | 7.7 | 32 | 67
25 | COC(=O)[C@]12CCC(C)(C)C[C@H]1C1=CC[C@@H]3[C@@]4(C)CC[C@H](OCc5ccccc5)C(C)(C)[C@@H]4CC[C@@]3(C)[C@]1(C)C[C@H]2O | – | 25 | 12.6 | 10.5 | 5.2
26 | COC(=O)[C@]12CCC(C)(C)C[C@H]1C1=CC[C@@H]3[C@@]4(C)CCC(=O)C(C)(C)[C@@H]4CC[C@@]3(C)[C@]1(C)C[C@H]2O | – | 55.4 | 21.5 | 3.5 | 64.7
27 | COC(=O)[C@]12CCC(C)(C)C[C@H]1[C@H]1C(=O)C[C@@H]3[C@@]4(C)CC[C@H](O)C(C)(C)[C@@H]4CC[C@@]3(C)[C@]1(C)C[C@H]2O | – | 46.1 | 42.7 | 4.9 | -8.7
28 | CC(=O)O[C@H]1[C@H](OC(C)=O)[C@H](OC(C)=O)CO[C@H]1n1cc(CNC(=O)[C@]23CCC(C)(C)C[C@H]2C2=CC[C@@H]4[C@@]5(C)CC[C@H](O)C(C)(C)[C@@H]5CC[C@@]4(C)[C@]2(C)C[C@H]3O)nn1 | – | 20.9 | -6.6 | 26.3 | 72.6
